Measured values as given in patent publication US9301956B2, “Application of cinchona alkaloid derivatives as cytotoxic compounds” (ADAM MICKIEWICZ UNIVERSITY, priority 2014, dated 2016).
≈ marks a conversion by molar mass, not a printed value. Where “and” joins values, the source holds several entries; their conditions need not be identical. Identical values can stand only once. Like-named read-outs stand apart in the source and are kept apart here.

Key:
Type in all cases: cell-based
KB (nasopharynx cancer) = assay: Sulphorhodamine B cytotoxicity test, KB line; conditions: for IC50: average of three determinations, read-out: Cytotoxic activity, IC50, KB (nasopharynx cancer)
Experimental: (§1) Cytotoxic activity tests were performed using the following cancer cell lines: MCF-7 (breast cancer), HeLa (cervical cancer) A549 (pulmonary cancer) and KB (nasopharynx cancer) obtained from ECACC (European Collection of Cell Cultures). Cytotoxicity tests were carried out using a standard procedure with sulphorhodamine B. They involved incubation of the cancer cell lines in the logarithmic growth phase for 72 hours with the compound tested and, subsequently, spectrophotometric determination of the degree of cell growth inhibition using adsorption of a dye (sulphorhodamine B) which binds cellular proteins. The determination was carried out according to a procedure reported in: Vichai, V., Kirtikara, K. Nature Protocols, 2006, 1, 1112. […] Solutions of the test compounds were prepared in DMSO in the following concentration range: 0.05; 0.1; 0.5; 1; 5; 10; 50; 100 μM. The cells of the lines tested were treated with the solutions of the test compounds in a laminar-flow chamber which ensured sterile working conditions according to the following procedure: the first three wells were used as a control: they contained 20 μL of DMSO only; successive solutions of the test compound were added to subsequent wells (20 μL), starting with the lowest concentration (three wells for each concentration level). Subsequently, the plates were placed in an incubator for 72 hours. After the end of incubation, the adhered cells were fixed by adding 500 μL of cold (4° C.) 50% trichloroacetic acid (TCA) and incubated at 4° C. for 1 hour. Subsequently, each well was rinsed with sterile water and dried. The operation was repeated five times. The fixed cells were stained for 30 minutes by adding 500 μL of 0.4% of a dye solution (sulphorhodamine B) dissolved in 1% acetic acid. […] Subsequently, the plates were dried in air for approx. 5 minutes. Any unbound dye was dissolved by adding 1500 μL of […] Tris-base buffer (trishydroxymethylaminomethane) to each well and shaken using an orbital shaker for 5 minutes. […] Depending on the type of the cell line, the following growth media were used: • the MCF-7 line was grown in Dulbecco's Modified Eagle's Medium (DME) from Sigma (cat. no. […] R8758).

MCF-7 (breast cancer) = assay: Sulphorhodamine B cytotoxicity test, MCF-7 line; conditions: for IC50: Homo sapiens, MCF7, 72 h incubation, SRB
Experimental: as §1

A549 (lung cancer) = assay: Sulphorhodamine B cytotoxicity test, A549 line; conditions: for IC50: Homo sapiens
Experimental: as §1

HeLa (cervical cancer) = assay: Sulphorhodamine B cytotoxicity test, HeLa line; conditions: for IC50: Homo sapiens, HeLa
Experimental: as §1

[1] = tested on: cancer cell lines of breast cancer, cervical cancer, lung cancer and nasopharynx cancer; assay: Sulphorhodamine B cytotoxicity test, cancer cell lines overall (line not specified)
Experimental: Cytotoxic activity tests were performed using the following cancer cell lines: MCF-7 (breast cancer), HeLa (cervical cancer) A549 (pulmonary cancer) and KB (nasopharynx cancer) obtained from ECACC (European Collection of Cell Cultures).
Cytotoxicity tests were carried out using a standard procedure with sulphorhodamine B. They involved incubation of the cancer cell lines in the logarithmic growth phase for 72 hours with the compound tested and, subsequently, spectrophotometric determination of the degree of cell growth inhibition using adsorption of a dye (sulphorhodamine B) which binds cellular proteins. The determination was carried out according to a procedure reported in: Vichai, V., Kirtikara, K. Nature Protocols, 2006, 1, 1112.
Cancerous cells of the cell line tested in the logarithmic growth phase were seeded onto 24-well plates in a quantity of 20,000 cells/2 mL of the growth medium per well and, subsequently, incubated in an incubator at 37° C., in the 5% CO2 atmosphere for 24 hours. […]
After the end of incubation, the adhered cells were fixed by adding 500 μL of cold (4° C.) 50% trichloroacetic acid (TCA) and incubated at 4° C. for 1 hour. […] Subsequently, 200 μL of solution from each well was transferred to each of two wells on a new 96-well plate and absorption of the solutions was determined spectrophotometrically at a wavelength of 490-530 nm using a plate reader. […]

[2] = average of three determinations, read-out: Cytotoxic activity, IC50, MCF-7 line (breast cancer)
[3] = A549, 72 h incubation, SRB, average of three determinations, read-out: Cytotoxic activity, IC50, A549 (lung cancer)
[4] = 72 h incubation, SRB, average of three determinations, read-out: Cytotoxic activity, IC50, HeLa (cervical cancer)

Structure (SMILES): O=c1[nH]c(=O)n([C@H]2C[C@H](O)[C@@H](CO)O2)cc1F [5-fluoro-2′-deoxyuridine]
- IC50 (KB (nasopharynx cancer); 72 h incubation, SRB): 3.37 µg/mL and 13.7 µM
- IC50 (MCF-7 (breast cancer); [2]): 2.81 µg/mL and 11.4 µM
- IC50 (A549 (lung cancer); [3]): 3.3 µg/mL and 13.4 µM
- IC50 (HeLa (cervical cancer); [4]): 3.2 µg/mL and 13 µM

Structure (SMILES): O=c1[nH]cc(F)c(=O)[nH]1 [5-fluorouracil]
- IC50 (KB (nasopharynx cancer); 72 h incubation, SRB): 2.86 µg/mL and 22 µM
- IC50 (MCF-7 (breast cancer); [2]): 2.37 µg/mL and 18.2 µM
- IC50 (A549 (lung cancer); [3]): 2.78 µg/mL and 21.4 µM
- IC50 (HeLa (cervical cancer); [4]): 2.73 µg/mL and 21 µM

Structure (SMILES): C#CCO[C@@H](c1ccnc2ccccc12)[C@H]1C[C@@H]2CCN1C[C@@H]2C=C [PCN, 9-O-propargylcinchonine]
- Cytotoxic activity class, KB (nasopharynx cancer) (KB (nasopharynx cancer); 72 h incubation, SRB): (A) (IC50<4 μg/mL are generally assumed as active (abbreviated as A))
- times as high activity compared to 5FU (KB (nasopharynx cancer); KB (nasopharynx cancer), relative to 5FU): 2.3 times
- times as high activity compared to 5 FdU (KB (nasopharynx cancer); KB (nasopharynx cancer), relative to 5 FdU): 1.4 times
- times as cytotoxic as 5FU (MCF-7 (breast cancer); MCF-7 line, relative to 5FU): more than two times
- times as active as 5 FdU (MCF-7 (breast cancer); MCF-7 line, relative to 5 FdU): 1.3 times
- in vitro cytotoxicity against cancer cell lines [1]: within the range of high activity
- times as cytotoxic as 5FU (A549 (lung cancer); A549 (pulmonary cancer), relative to 5FU): more than 1.8 times
- cytotoxicity compared with 5 FdU (A549 (lung cancer); A549 (pulmonary cancer), relative to 5 FdU): slightly more cytotoxic
- times as cytotoxic as 5FU (HeLa (cervical cancer); HeLa (cervical cancer), relative to 5FU): two times
- times as cytotoxic as 5 FdU (HeLa (cervical cancer); HeLa (cervical cancer), relative to 5 FdU): 1.2 times

Structure (SMILES): C=C[C@H]1C[N@@]2CC[C@H]1C[C@@H]2[C@@H](O)c1ccnc2ccccc12 [cinchonine]
- IC50 (MCF-7 (breast cancer); read-out: Cytotoxic activity class, MCF-7 line (breast cancer)): 4 to 30 µg/mL (≈ 13.6 to 102 µM)
- IC50 (A549 (lung cancer); A549, 72 h, read-out: Cytotoxic activity class, A549 (lung cancer)): 4 to 30 µg/mL (≈ 13.6 to 102 µM)
- IC50 (HeLa (cervical cancer); 72 h, read-out: Cytotoxic activity class, HeLa (cervical cancer)): 4 to 30 µg/mL (≈ 13.6 to 102 µM)
